Assay type in all cases: functional, organism-based
For test [1], the system named is Mus musculus. Description: Antiepileptic activity in CF1 mouse assessed as inhibition of maximal electroshock-induced seizures at 30 mg/kg, ip after 4 hrs. More on the design: dose 30 mg/kg.
Test [2] has as its system Rattus norvegicus. Description: Antiallodynic activity in rat assessed as protection against spinal nerve ligation-induced neuropathic pain at 80 mg/kg, ip after 240 mins. Set-up: dose 80 mg/kg.
In test [3] the test system is Mus musculus. The test can be described thus: Antiepileptic activity in CF1 mouse assessed as inhibition of maximal electroshock-induced seizures at 100 mg/kg, ip after 0.5 hrs. Set-up: dose 100 mg/kg.
The test system of test [4] is Mus musculus. The test can be described thus: Antiepileptic activity in CF1 mouse assessed as inhibition of subcutaneous pentylenetetrazole-induced seizures at 30 mg/kg, ip after 4 hrs. More on the design: dose 30 mg/kg.
In test [5] the test system is Mus musculus. The test can be described thus: Antiepileptic activity in CF1 mouse assessed as inhibition of subcutaneous pentylenetetrazole-induced seizures at 100 mg/kg, ip after 4 hrs. More on the design: dose 100 mg/kg.
The subject of test [6] is Mus musculus. The test can be described thus: Antiepileptic activity in CF1 mouse assessed as inhibition of maximal electroshock-induced seizures at 100 mg/kg, ip after 4 hrs. Set-up: dose 100 mg/kg.
The test system of test [7] is Mus musculus. Description: Neurotoxicity in CF1 mouse assessed as protection against motor impairment at 300 mg/kg, ip after 4 hrs by rotarod test. More on the design: dose 300 mg/kg.
Test [8] concerns Mus musculus. Description: Antiepileptic activity in CF1 mouse assessed as inhibition of maximal electroshock-induced seizures at 300 mg/kg, ip after 0.5 hrs. Set-up: dose 300 mg/kg.
The subject of test [9] is Mus musculus. Description: Antiepileptic activity in CF1 mouse assessed as inhibition of subcutaneous pentylenetetrazole-induced seizures at 300 mg/kg, ip after 4 hrs. More on the design: dose 300 mg/kg.
The test system of test [10] is Mus musculus. The test can be described thus: Neurotoxicity in CF1 mouse assessed as protection against motor impairment at 30 mg/kg, ip after 4 hrs by rotarod test. Set-up: dose 30 mg/kg.
The subject of test [11] is Mus musculus. Description: Antiepileptic activity in CF1 mouse assessed as inhibition of subcutaneous pentylenetetrazole-induced seizures at 300 mg/kg, ip after 0.5 hrs. Set-up: dose 300 mg/kg.
Test [12] has as its system Mus musculus. Description: Antiepileptic activity in CF1 mouse assessed as inhibition of subcutaneous pentylenetetrazole-induced seizures at 100 mg/kg, ip after 0.5 hrs. More on the design: dose 100 mg/kg.
Test [13] deals with Mus musculus. The test can be described thus: Neurotoxicity in CF1 mouse assessed as protection against motor impairment at 100 mg/kg, ip after 4 hrs by rotarod test. More on the design: dose 100 mg/kg.
Test [14] deals with Mus musculus. Description: Antiepileptic activity in CF1 mouse assessed as inhibition of maximal electroshock-induced seizures at 30 mg/kg, ip after 0.5 hrs. More on the design: dose 30 mg/kg.
Test [15] concerns Mus musculus. The test can be described thus: Antiepileptic activity in CF1 mouse assessed as inhibition of maximal electroshock-induced seizures at 300 mg/kg, ip after 4 hrs. Set-up: dose 300 mg/kg.
Test [16] concerns Mus musculus. The test can be described thus: Neurotoxicity in CF1 mouse assessed as protection against motor impairment at 30 mg/kg, ip after 0.5 hrs by rotarod test. Set-up: dose 30 mg/kg.
Test [17] relates to Mus musculus. The test can be described thus: Antiepileptic activity in CF1 mouse assessed as inhibition of subcutaneous pentylenetetrazole-induced seizures at 30 mg/kg, ip after 0.5 hrs. More on the design: dose 30 mg/kg.
Test [18] relates to Mus musculus. Description: Neurotoxicity in CF1 mouse assessed as protection against motor impairment at 100 mg/kg, ip after 0.5 hrs by rotarod test. Set-up: dose 100 mg/kg.
For test [19], the system named is Rattus norvegicus. The test can be described thus: Antiallodynic activity in rat assessed as protection against spinal nerve ligation-induced neuropathic pain at 80 mg/kg, ip after 30 mins. More on the design: dose 80 mg/kg.
The subject of test [20] is Mus musculus. Description: Neurotoxicity in CF1 mouse assessed as protection against motor impairment at 300 mg/kg, ip after 0.5 hrs by rotarod test. Set-up: dose 300 mg/kg.

Activity calls are given as the source filed them. No cut-off for these calls is given here.

For `CC(C)CC(C(N)=O)C(C)C` (configuration not stated), the result with Mus musculus [1], in the test on Rattus norvegicus [2], with Mus musculus [3], with Mus musculus [4], in the test with Mus musculus [5] and in the test on Mus musculus [6] was inactive. For the same compound, the result with Mus musculus [7], with Mus musculus [8], in the test on Mus musculus [9], in the test on Mus musculus [10], with Mus musculus [12] and in the test on Mus musculus [13] was inactive. The result in the test on Mus musculus [14], in the test on Mus musculus [15], in the test on Mus musculus [16] and with Mus musculus [17] was inactive. Further, the result with Mus musculus [11] was Active.

For `CCCC(CCC)C(=O)NC(N)=O`, the outcome in the test with Mus musculus [1], in the test with Mus musculus [4], in the test on Mus musculus [5], in the test with Mus musculus [6], with Mus musculus [9] and in the test on Mus musculus [13] was inactive. Also, the result in the test on Mus musculus [14] and in the test with Mus musculus [17] was inactive. For the same compound, the outcome in the test with Mus musculus [3], in the test with Mus musculus [8], in the test on Mus musculus [11], in the test with Mus musculus [12] and in the test with Mus musculus [15] was Active.

For `CCC(C(N)=O)C(C)C` (configuration not stated), the result with Mus musculus [1], in the test on Mus musculus [3], in the test with Mus musculus [4], in the test on Mus musculus [5], in the test with Mus musculus [6] and in the test on Mus musculus [7] was inactive. Also, the result in the test on Mus musculus [9], with Mus musculus [10], in the test on Mus musculus [11], with Mus musculus [12], with Mus musculus [13] and with Mus musculus [14] was inactive. The result in the test with Mus musculus [18], in the test with Mus musculus [15], with Mus musculus [16] and in the test on Mus musculus [17] was inactive. In addition, the outcome in the test on Mus musculus [8] was Active.

For the compound `CCC(CC(C)C)C(N)=O` (configuration not stated), the outcome with Mus musculus [1], with Mus musculus [3], in the test on Mus musculus [4], in the test on Mus musculus [5], in the test with Mus musculus [6] and in the test with Mus musculus [7] was inactive. Moreover, the result with Rattus norvegicus [19], in the test on Mus musculus [10], in the test on Mus musculus [12], with Mus musculus [13], in the test with Mus musculus [14] and with Mus musculus [18] was inactive. Moreover, the outcome with Mus musculus [15], with Mus musculus [16] and in the test with Mus musculus [17] was inactive. In addition, the result with Mus musculus [8], in the test with Mus musculus [9] and in the test on Mus musculus [20] was Active.

On to `CCCCC(CC)C(=O)NC` (configuration not stated), for which the outcome in the test with Mus musculus [1], with Mus musculus [4], in the test on Mus musculus [5], in the test with Mus musculus [6], in the test with Mus musculus [7] and in the test on Rattus norvegicus [19] was inactive. Besides, the result in the test on Mus musculus [9], in the test on Mus musculus [10], in the test with Mus musculus [12], in the test with Mus musculus [13], in the test on Mus musculus [14] and in the test on Mus musculus [18] was inactive. Further, the result with Mus musculus [16] and in the test on Mus musculus [17] was inactive. Moreover, the result in the test on Mus musculus [8], in the test with Mus musculus [11], in the test on Mus musculus [20] and with Mus musculus [15] was Active.

As for `CC(C)C(C(N)=O)C(C)(C)C` (configuration not stated), the result with Mus musculus [1], with Mus musculus [4], with Mus musculus [5], in the test with Mus musculus [6], in the test with Mus musculus [10] and with Mus musculus [13] was inactive. Also, the result in the test on Mus musculus [14], with Mus musculus [16] and with Mus musculus [17] was inactive. The outcome with Mus musculus [7], with Mus musculus [8], with Mus musculus [9], in the test with Mus musculus [11], in the test with Mus musculus [20] and in the test with Mus musculus [12] was Active. The outcome with Mus musculus [15] was Active.

`CCCC(CC)C(N)=O` (configuration not stated): the outcome in the test on Mus musculus [1], in the test with Mus musculus [4], in the test on Mus musculus [5], in the test on Mus musculus [6], in the test with Mus musculus [7] and in the test on Mus musculus [9] was inactive. Moreover, the result with Mus musculus [10], in the test on Mus musculus [12], with Mus musculus [13], in the test with Mus musculus [14], in the test on Mus musculus [18] and in the test with Mus musculus [16] was inactive. Moreover, in the test with Mus musculus [17], the result was inactive. Further, the outcome with Mus musculus [8], in the test on Mus musculus [11] and in the test on Mus musculus [15] was Active.

In the case of `CC(C)C(C(=O)NC(N)=O)C(C)C`, the outcome with Mus musculus [1], in the test with Mus musculus [4], with Mus musculus [5], with Mus musculus [6], in the test on Mus musculus [9] and in the test on Mus musculus [10] was inactive. In addition, the result in the test on Mus musculus [13], in the test with Mus musculus [14] and in the test on Mus musculus [17] was inactive. Also, the outcome in the test with Mus musculus [7], with Mus musculus [8], with Mus musculus [11], with Mus musculus [20], in the test on Mus musculus [12] and with Mus musculus [15] was Active.

Take `CCCC(C(=O)NC)C(C)C` (configuration not stated): the result with Mus musculus [1], in the test on Mus musculus [3], in the test with Mus musculus [4], in the test on Mus musculus [5], with Mus musculus [6] and with Mus musculus [7] was inactive. Besides, the outcome with Rattus norvegicus [19], in the test on Mus musculus [8], in the test with Mus musculus [9], with Mus musculus [10], with Mus musculus [12] and with Mus musculus [13] was inactive. Moreover, the outcome in the test with Mus musculus [14], with Mus musculus [18], in the test on Mus musculus [15], in the test with Mus musculus [16] and with Mus musculus [17] was inactive. Besides, the outcome in the test with Mus musculus [11] and in the test with Mus musculus [20] was Active.

Regarding `CCC(C)C(CC)C(=O)NC` (configuration not stated), the result in the test on Mus musculus [1], with Mus musculus [3], in the test with Mus musculus [4], with Mus musculus [5], with Mus musculus [6] and with Mus musculus [7] was inactive. Besides, the result in the test with Rattus norvegicus [19], with Mus musculus [8], in the test with Mus musculus [9], in the test on Mus musculus [10], in the test on Mus musculus [12] and in the test with Mus musculus [13] was inactive. The outcome in the test on Mus musculus [14], in the test with Mus musculus [15], in the test on Mus musculus [16] and in the test on Mus musculus [17] was inactive. Moreover, the outcome in the test on Mus musculus [11] was Active.

As to `CNC(=O)C(C(C)C)C(C)C`, the result with Mus musculus [1], in the test on Mus musculus [3], in the test on Mus musculus [4], in the test with Mus musculus [5], in the test with Mus musculus [6] and in the test with Mus musculus [7] was inactive. The outcome in the test with Rattus norvegicus [19], in the test with Mus musculus [9], with Mus musculus [10], in the test on Mus musculus [12], with Mus musculus [13] and in the test with Mus musculus [14] was inactive. For the same compound, the outcome in the test with Mus musculus [15], in the test on Mus musculus [16] and with Mus musculus [17] was inactive. For the same compound, the result in the test on Mus musculus [8] was Active.

Source of the values: ChEMBL document CHEMBL1153701, “Synthesis and evaluation of antiallodynic and anticonvulsant activity of novel amide and urea derivatives of valproic acid analogues” (2009).
